From PMC5131915, “Platinum(II) Iodido Complexes of 7-Azaindoles with Significant Antiproliferative Effects: An Old Story Revisited with Unexpected Outcomes” (PLoS ONE, 2016)

Key:
calf thymus DNA (ctDNA) = experiment: Fluorescence quenching experiments on the EtBr/ctDNA system; format: binding; conditions: for Stern-Volmer quenching constant KSV: TRIS/NaCl buffer pH 7.2; for apparent binding constant Kapp: estimated from Q50
Experimental: A volume of 405 μL of 154 μM ctDNA and 10 μL of 3 mM EtBr were mixed together in TRIS/NaCl buffer (pH = 7.2) and incubated for 30 min at ambient temperature. […] The mixtures were incubated at ambient temperature for next 15 min. The maxima of the emitted fluorescence of EtBr/ctDNA system have been observed at 613 nm (using the 546 nm excitation wavelength) and the intensity of fluorescence was recorded on a AvaSpec HS1024x122TE fluorescence spectrometer using a 1 cm quartz cell. […] Due to the indirect nature of the fluorescence quenching method, the value of KSV can be used for the estimation of the apparent binding constant Kapp of the complex by using the equation KEB [EtBr] = Kapp [Q50], where [Q50] is the concentration of the complex causing the 50% reduction in the intensity of fluorescence of the EtBr/DNA supramolecular complex, KEB = 1.0 × 10^6 M^−1 and [EtBr] = 10 μM [27].

HOS osteosarcoma cells = experiment: In vitro cytotoxicity testing (MTT assay), HOS; format: cell-based, human; conditions: for IC50: 24 h drug exposure, no recovery, MTT, read-out: IC50±SD, HOS; for selectivity factor IC50(Hep)/IC50(cancer cell line): HOS; for times more potent than cisplatin: HOS cell line
Experimental: (§1) A2780 ovarian carcinoma, A2780R cisplatin-resistant ovarian carcinoma, HOS osteosarcoma, G361 malignant melanoma, MCF7 breast carcinoma, A549 lung carcinoma, HeLa cervix carcinoma, 22Rv1 prostate carcinoma and Caco-2 colorectal carcinoma human cancer cell lines were purchased from the European Collection of Cell Cultures (ECACC), while the human non-cancerous hepatocytes (Hep) were supplied by Biopredic Intl. The cell lines were cultured, according to the suppliers`instructions, in RPMI-1640 medium supplemented with 10% of fetal calf serum, 1% of 2 mM glutamine, and 1% penicillin/streptomycin. All cell lines were grown as adherent monolayers at 37°C and 5% CO2 in a humidified atmosphere.
(§2) The cells were seeded to 96-well culture plates, pre-incubated in drug-free media at 37°C for 24 h and treated typically with the 0.01–50.0 μM solutions, prepared from the stock solutions by dilution with medium, for 24 h at 37°C. […] In parallel with compounds 1–8 and the reference drugs, the cells were also treated with vehicle (0.1% DMF in medium; negative control) and Triton X-100 (1%; positive control) to assess the minimal and maximal cell damage, respectively. The MTT assay was used to determine the cell viability; MTT = 3-(4,5-dimethylthiazol-2-yl)-2,5-diphenyltetrazolium bromide. A concentration of the formed dye was evaluated spectrophotometrically at 540 nm (TECAN, Schoeller Instruments LLC).
(§3) The data were expressed as the percentage of viability, where 100% and 0% represents the treatments with negative and positive controls, respectively. The data from the cancer cells were acquired from three independent experiments (conducted in triplicate) using cells from different passages. The resulting IC50 values (μM) were calculated from viability curves and the results are presented as arithmetic mean±SD.

[1] = test system: spleen, renal tissue and tumour tissues of L1210 leukaemia-bearing mice; experiment: Histological observations (light microscopy, semi-quantitative); conditions: relative scale 0 to 4
Description: Randomly selected paraffin block preparations were stained by standard hematoxylin and eosin stain for light microscopic evaluation. Due to high cellularity, the semi-quantitative method was used for the evaluation of necrosis in well-circumcised and diffuse tumour samples and PMN cells infiltration in normal tissues as an indirect sign of toxicity to healthy tissues. The evaluation of necrotic processes and infiltration by PMN cells was semi-quantitative, based on the percentage of necrotic areas and/or infiltrated area in the view-field of at least three different samples.

pUC19 plasmid dsDNA = experiment: Gel electrophoresis studies of interaction with pUC19 plasmid dsDNA; parameters: species or system Escherichia coli; conditions: 37°C, 24 h; for effect on electrophoretic mobility of pUC19 forms (SC, OC, L): 0.23-2.30 μM
Experimental: Supercoiled pUC19 plasmid dsDNA (2686 bp, 1750 kDa) was isolated from Escherichia coli TOP10F’ by QIAprep Spin Miniprep Kit (Qiagen, Germany). The concentration and purity of the isolated plasmid DNA were evaluated spectrophotometrically. Plasmid was dissolved in nuclease-free water and stored at –20°C.
2 μL of these solutions were added to 18 μL of the pUC19 plasmid DNA water solution (300 ng per reaction, corresponding to a concentration of 23 μM calculated for the base pairs) and the mixture was left to react in the final 10% DMF/90% water solution containing the final concentrations of the complexes of 2.30, 1.15 and 0.23 μM, corresponding to 0.10, 0.05 and 0.01 metal-to-base pair stoichiometry. In parallel, the experiment was performed on plasmid DNA in the 10% DMF/90% water solution and in water. The reaction mixtures were incubated at 37°C for 24 h. An electrophoretic mobility was evaluated by gel electrophoresis ([…], 3 h) performed on a 0.8% (w/v) agarose gel containing EtBr (2.0 mg/L (w/v)) at ambient temperature in Tris-acetate/EDTA buffer. The bands on the obtained electrophoretogram were detected by an MUV21-CP-02 gel scanner (Major Science) and analysed with AlphaEaseFC software (version 4.0.0.34, Alpha Innotech) in order to evaluate the relative percentages of the SC, OC and L forms. Each experiment was performed in triplicate.

[2] = test system: human non-cancerous hepatocytes (Hep); experiment: In vitro cytotoxicity testing (MTT assay), hepatocytes; format: cell-based; conditions: 24 h drug exposure, no recovery
Experimental: as §1, §2, §3

[3] = test system: A2780R cisplatin-resistant ovarian carcinoma cells; experiment: In vitro cytotoxicity testing (MTT assay), A2780R; format: cell-based, human; conditions: for IC50: 24 h drug exposure, no recovery, MTT, read-out: IC50±SD, A2780R; for resistance factor (RF), IC50(A2780R)/IC50(A2780): 24 h IC50 values
Experimental: All cell lines were grown as adherent monolayers at 37°C and 5% CO2 in a humidified atmosphere.
The MTT assay was used to determine the cell viability; MTT = 3-(4,5-dimethylthiazol-2-yl)-2,5-diphenyltetrazolium bromide. A concentration of the formed dye was evaluated spectrophotometrically at 540 nm (TECAN, Schoeller Instruments LLC).
as §3

[4] = test system: L1210 mouse lymphocytic leukaemia cells; experiment: In vivo antitumour activity testing, L1210 lymphocytic leukaemia model; parameters: species or system mice; conditions: i.p.; for percentage of mean survival time T/C / mean survival time ± SD / tolerability / signs of toxicity (e.g. weight loss): dose equimolar to cisplatin 2 mg/kg; for mean survival time ± SD: 10 days after implantation, control 17.4±1.6 days
Experimental: The experimental animals used for in vivo antitumour testing were female DBA/2 SPF mice obtained from Charles Rivers Laboratories. The animals were housed in the Sealsafe NEXT—IVC Blue Line Housing System (Tecniplast, Italy) to ensure the best possible experimental conditions and eliminate the risk of possible intergroup cross-contamination, and kept in Plexiglas cages at constant temperature (22±1°C) and relative humidity of 55±5% for one-week adaptation period before the start of the experiment. All experimental procedures were performed according to the National Institute of Health (NIH) Guide for the Care and Use of Laboratory Animals. The protocol was approved by the Expert Committee on the Protection of Animals Against Cruelty at the University of Veterinary and Pharmaceutical Sciences Brno (Permit Number: 71/2013). The number of pharmacological interventions was limited to the necessary minimum in order to minimize the suffering of animals, which were observed regularly for the symptoms connected with the tumour progression. […] No animals had to be sacrificed due to the above mentioned criteria of humane treatment and no post-application deaths within the 2 hours after the application were observed during the experiment. […] The animal tissues for the ex vivo experiments and histological evaluations were taken post mortem, in case of surviving animals immediately after they were sacrificed by the lethal dose of carbon dioxide inhalation, immediately followed by the cervical dislocation.
The animals were monitored several times a day for the signs of tumour progression and distress development.

| SMILES | Stern-Volmer quenching constant KSV (calf thymus DNA (ctDNA)) | apparent binding constant Kapp (calf thymus DNA (ctDNA)) | IC50 (HOS osteosarcoma cells) [nM] | Areas of necrosis in tumour tissues [1] | Infiltration of renal tissues (PMN cells) [1] | Infiltration of spleen (PMN cells) [1] | effect on electrophoretic mobility of pUC19 forms (SC, OC, L) (pUC19 plasmid dsDNA) | IC50 [2] [µM] | IC50 [3] [µM] | percentage of mean survival time T/C [4] [%] | mean survival time ± SD [4] [days] | maximum tolerated dose ([4]; mice) [mg/kg] | selectivity factor IC50(Hep)/IC50(cancer cell line) (HOS osteosarcoma cells) | times more potent than cisplatin (HOS osteosarcoma cells) [times] | resistance factor (RF), IC50(A2780R)/IC50(A2780) [3] | tolerability / signs of toxicity (e.g. weight loss) [4] | amount of damaged OC and linear (L) forms of pUC19 DNA (pUC19 plasmid dsDNA; concentration-dependent) |
| --- | --- | --- | --- | --- | --- | --- | --- | --- | --- | --- | --- | --- | --- | --- | --- | --- | --- |
| N.N.[Cl][Pt][Cl] [Cisplatin, cisplatin, reference compound] | 4.7 × 10^3 M^–1 | 4.8 × 10^4 M^–1 | 18900 ± 1700 | 3 (3 = up to 75%) | 1 (1 = up to 25%) | 1 (1 = up to 25%) | increase the electrophoretic mobility | > 75 | > 50 | 108 | 18.8 ± 2.4 | 2 | – | – | – | – | – |
| Brc1cc[n+]([Pt-2]([I])([I])[n+]2ccc(Br)c3cc[nH]c32)c2[nH]ccc12 [Complex 6, cis-[Pt(4Braza)2I2]] | 7.4 × 10^3 M^–1 | 7.8 × 10^4 M^–1 | 400 ± 100 | 1–2 | 1 (1 = up to 25%) | 2 (2 = up to 50%) | did not significantly change the mobility | 4.1 | 3.3 ± 0.4 | 99 | 17.3 ± 2.1 | – | ~10 | ≤ 47 | 1.03 | well-tolerated | – |
| Cc1cc2c(Cl)cc[n+]([Pt-2]([I])([I])[n+]3ccc(Cl)c4cc(C)[nH]c43)c2[nH]1 [Complex 8, cis-[PtI2(2Me4Claza)2]] | 1.4 × 10^4 M^–1 | 1.2 × 10^5 M^–1 | 700 ± 200 | 3 (3 = up to 75%) | 0–1 | 1–2 | did not significantly change the mobility | 9.5 | 1 ± 0.4 | 109 | 19.0 ± 2.4 | – | ~14 | ≤ 47 | 0.59 | well-tolerated | visibly increased |
